34 compounds from patent US12084472B2 (Ardelyx, Inc., priority 2015, dated 2024) can be followed below.

The target of the assay is T1, human TGR5 (Homo sapiens, UniProt Q8TDU6).
T1 construct: expressed in transfected cells; host or cells: HEK293
T1 sequence (Q8TDU6 1-330): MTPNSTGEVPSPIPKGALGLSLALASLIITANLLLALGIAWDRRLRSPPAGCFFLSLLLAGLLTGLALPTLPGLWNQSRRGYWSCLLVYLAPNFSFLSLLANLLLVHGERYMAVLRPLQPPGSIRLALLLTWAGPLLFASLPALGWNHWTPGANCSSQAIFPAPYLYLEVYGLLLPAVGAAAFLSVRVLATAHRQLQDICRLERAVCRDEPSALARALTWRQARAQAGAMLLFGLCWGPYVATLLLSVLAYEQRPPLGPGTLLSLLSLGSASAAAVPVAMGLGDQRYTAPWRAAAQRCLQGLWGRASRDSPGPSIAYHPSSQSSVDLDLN
Put plainly: Cell-based TGR5 assay (cAMP generation, HTRF). The settings on record: HEK293 cells stably transfected with human TGR5; cAMP by HTRF; 30 minutes at 37° C.; read-out: pEC50 Human TGR5 (converted). The method in brief: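 First, compounds in 3-fold serial dilution were placed in HBSS with 10 mM HEPES pH 7.4 and 0.5 mM IBMX. Next, human TGR5-expressing HEK293 cells were added and incubated 30 min at 37° C. Finally, cAMP was detected by HTRF and pEC50 derived by logistic fitting.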
Consider `Clc1ccc(Cl)c(CNC2(c3cnccc3-c3ccccc3OC3CCC3)CC2)c1` [Compound I-5, 1-[4-(2-cyclobutoxyphenyl)pyridin-3-yl]-N-[(2,5-dichlorophenyl)methyl]cyclopropan-1-amine], for which the EC50 is 126 to 1000 nM.
As to `Cc1ccccc1-c1ccncc1C1(NCc2cc(Cl)ccc2Cl)CC1` [Compound I-6, N-[(2,5-dichlorophenyl)methyl]-1-[4-(2-methylphenyl)pyridin-3-yl]cyclopropan-1-amine], the EC50 is 126 to 1000 nM.
As for `CSc1ccccc1-c1ccncc1C1(NCc2cc(Cl)ccc2Cl)CC1` [Compound I-7, N-[(2,5-dichlorophenyl)methyl]-1-{4-[2-(methylsulfanyl)phenyl]pyridin-3-yl}cyclopropan-1-amine], the figure is 126 to 1000 nM.
As for `FC(F)(F)COc1ccccc1-c1ccncc1C1(NCc2cc(Cl)ccc2Cl)CC1` [Compound I-8, N-[(2,5-dichlorophenyl)methyl]-1-{4-[2-(2,2,2-trifluoroethoxy)phenyl]pyridin-3-yl}cyclopropan-1-amine], the figure is 126 to 1000 nM; as for `CCc1ccccc1-c1ccncc1C1(NCc2cc(Cl)ccc2Cl)CC1` [Compound I-9, N-[(2,5-dichlorophenyl)methyl]-1-[4-(2-ethylphenyl)pyridin-3-yl]cyclopropan-1-amine], 126 to 1000 nM.
Turning to `Clc1ccc(Cl)c(CNC2(c3cnccc3-c3ccccc3C3CC3)CC2)c1` [Compound I-10, 1-[4-(2-cyclopropylphenyl)pyridin-3-yl]-N-[(2,5-dichlorophenyl)methyl]cyclopropan-1-amine], the EC50 was 126 to 1000 nM.
As to `FC(F)(F)Oc1ccccc1-c1ccncc1C1(NCc2cc(Cl)ccc2Cl)CC1` [Compound I-11], the EC50 is 126 to 1000 nM.
With `COCc1ccccc1-c1ccncc1C1(NCc2cc(Cl)ccc2Cl)CC1` [Compound I-12], the EC50 is 126 to 1000 nM.
To `CC(C)(C)OCc1ccccc1-c1ccncc1C1(NCc2cc(Cl)ccc2Cl)CC1` [Compound I-13, 1-(4-{2-[(tert-butoxy)methyl]phenyl}pyridin-3-yl)-N-[(2,5-dichlorophenyl)methyl]cyclopropan-1-amine] belongs 126 to 1000 nM; to `Clc1ccc(Cl)c(CNC2(c3cnccc3-c3ccccc3)CC2)c1` [Compound I-14, N-[(2,5-dichlorophenyl)methyl]-1-(4-phenylpyridin-3-yl)cyclopropan-1-amine], 126 to 1000 nM.
As to `CCOc1cc(F)c(F)cc1-c1ccncc1C1(NCc2cc(Cl)ccc2Cl)CC1` [Compound I-15, N-[(2,5-dichlorophenyl)methyl]-1-[4-(2-ethoxy-4,5-difluorophenyl)pyridin-3-yl]cyclopropan-1-amine], the EC50 is 126 to 1000 nM.
Take `Clc1ccc(Cl)c(CNC2(c3cnccc3-c3ccccc3Cl)CC2)c1` [Compound I-16, 1-[4-(2-chlorophenyl)pyridin-3-yl]-N-[(2,5-dichlorophenyl)methyl]cyclopropan-1-amine]: the EC50 is 1260 to 10000 nM.
In the case of `Fc1ccccc1-c1ccncc1C1(NCc2cc(Cl)ccc2Cl)CC1` [Compound I-17, N-[(2,5-dichlorophenyl)methyl]-1-[4-(2-fluorophenyl)pyridin-3-yl]cyclopropan-1-amine], the EC50 is 1260 to 10000 nM.
Regarding `Fc1ccc(-c2ccncc2C2(NCc3cc(Cl)ccc3Cl)CC2)c(OC2CC2)c1` [Compound I-18, 1-[4-(2-cyclopropoxy-4-fluorophenyl)pyridin-3-yl]-N-[(2,5-dichlorophenyl)methyl]cyclopropan-1-amine], the EC50 was less than 100 nM.
For `Clc1ccc(Cl)c(CNC2(c3cnccc3-c3ccccc3OC3COC3)CC2)c1` [Compound I-19, N-[(2,5-dichlorophenyl)methyl]-1-{4-[2-(oxetan-3-yloxy)phenyl]pyridin-3-yl}cyclopropan-1-amine], the EC50 was less than 100 nM.
With `CC(CO)Oc1ccccc1-c1ccncc1C1(NCc2cc(Cl)ccc2Cl)CC1` (stereo not shown) [Compound I-20, 2-{2-[3-(1-{[(2,5-dichlorophenyl)methyl]amino}cyclopropyl)pyridin-4-yl]phenoxy}propan-1-ol], the EC50 is 126 to 1000 nM.
Turning to `Clc1ccc(Cl)c(CNC2(c3cnccc3-c3ccccc3OC3CCOC3)CC2)c1` (stereo not shown) [Compound I-21, N-[(2,5-dichlorophenyl)methyl]-1-{4-[2-(oxolan-3-yloxy)phenyl]pyridin-3-yl}cyclopropan-1-amine], the EC50 was 126 to 1000 nM.
As to `O[C@@H]1COC[C@H]1Oc1ccccc1-c1ccncc1C1(NCc2cc(Cl)ccc2Cl)CC1` [Compound I-22, (3R,4R)-4-{2-[3-(1-{[(2,5-dichlorophenyl)methyl]amino}cyclopropyl)pyridin-4-yl]phenoxy}oxolan-3-ol], the EC50 is 1260 to 10000 nM.
`CSc1ccc(Cl)c(CNC2(c3cnccc3-c3ccccc3OC3CC3)CC2)c1` [Compound I-23, N-{[2-chloro-5-(methylsulfanyl)phenyl]methyl}-1-[4-(2-cyclopropoxyphenyl)pyridin-3-yl]cyclopropan-1-amine]: the EC50 was less than 100 nM.
Consider `Cc1ccc(C)c(CNC2(c3cnccc3-c3ccccc3OC3CC3)CC2)c1` [Compound I-24, 1-[4-(2-cyclopropoxyphenyl)pyridin-3-yl]-N-[(2,5-dimethylphenyl)methyl]cyclopropan-1-amine], for which the EC50 is less than 100 nM.
With `CSc1ccc(C)c(CNC2(c3cnccc3-c3ccccc3OC3CC3)CC2)n1` [Compound I-25, 1-[4-(2-cyclopropoxyphenyl)pyridin-3-yl]-N-{[3-methyl-6-(methylsulfanyl)pyridin-2-yl]methyl}cyclopropan-1-amine], the EC50 is less than 100 nM.
Take `Clc1cccc(CNC2(c3cnccc3-c3ccccc3OC3CC3)CC2)c1Cl` [Compound I-26, 1-[4-(2-cyclopropoxyphenyl)pyridin-3-yl]-N-[(2,3-dichlorophenyl)methyl]cyclopropan-1-amine]: the EC50 was 126 to 1000 nM.
As for `Cc1nc(C)c(CNC2(c3cnccc3-c3ccccc3OC3CC3)CC2)nc1C` [Compound I-27, 1-[4-(2-cyclopropoxyphenyl)pyridin-3-yl]-N-[(trimethylpyrazin-2-yl)methyl]cyclopropan-1-amine], the figure is 126 to 1000 nM; as for `Clc1ccc(CNC2(c3cnccc3-c3ccccc3OC3CC3)CC2)c(Cl)c1` [Compound I-28, 1-[4-(2-cyclopropoxyphenyl)pyridin-3-yl]-N-[(2,4-dichlorophenyl)methyl]cyclopropan-1-amine], 126 to 1000 nM; as for `COc1cc(C)c(CNC2(c3cnccc3-c3ccccc3OC3CC3)CC2)cc1C` [Compound I-29, 1-[4-(2-cyclopropoxyphenyl)pyridin-3-yl]-N-[(4-methoxy-2,5-dimethylphenyl)methyl]cyclopropan-1-amine], 126 to 1000 nM.
As for `FC(F)(F)c1ccc(Cl)cc1CNC1(c2cnccc2-c2ccccc2OC2CC2)CC1` [Compound I-30, N-{[5-chloro-2-(trifluoromethyl)phenyl]methyl}-1-[4-(2-cyclopropoxyphenyl)pyridin-3-yl]cyclopropan-1-amine], the EC50 is 126 to 1000 nM.
As for `Clc1ccc(C2CC2)cc1CNC1(c2cnccc2-c2ccccc2OC2CC2)CC1` [Compound I-31, N-[(2-chloro-5-cyclopropylphenyl)methyl]-1-[4-(2-cyclopropoxyphenyl)pyridin-3-yl]cyclopropan-1-amine], the figure is less than 100 nM; as for `FC(F)(F)c1ccc(Cl)c(CNC2(c3cnccc3-c3ccccc3OC3CC3)CC2)c1` [Compound I-32, N-{[2-chloro-5-(trifluoromethyl)phenyl]methyl}-1-[4-(2-cyclopropoxyphenyl)pyridin-3-yl]cyclopropan-1-amine], less than 100 nM; as for `Cc1ccc(Cl)c(CNC2(c3cnccc3-c3ccccc3OC3CC3)CC2)c1` [Compound I-33, N-[(2-chloro-5-methylphenyl)methyl]-1-[4-(2-cyclopropoxyphenyl)pyridin-3-yl]cyclopropan-1-amine], less than 100 nM.
As for `Cc1cc(CNC2(c3cnccc3-c3ccccc3OC3CC3)CC2)c(Cl)cn1` [Compound I-34, N-[(5-chloro-2-methylpyridin-4-yl)methyl]-1-[4-(2-cyclopropoxyphenyl)pyridin-3-yl]cyclopropan-1-amine], the EC50 is less than 100 nM.
To `Cc1ccc(Cl)c(CNC2(c3cnccc3-c3ccccc3OC3CC3)CC2)n1` [Compound I-35, N-[(3-chloro-6-methylpyridin-2-yl)methyl]-1-[4-(2-cyclopropoxyphenyl)pyridin-3-yl]cyclopropan-1-amine] belongs less than 100 nM; to `COc1c(F)cc(CNC2(c3cnccc3-c3ccccc3OC3CC3)CC2)c(C)c1Cl` [Compound I-36, N-[(3-chloro-5-fluoro-4-methoxy-2-methylphenyl)methyl]-1-[4-(2-cyclopropoxyphenyl)pyridin-3-yl]cyclopropan-1-amine], 126 to 1000 nM.
For `Cc1ccc(C(F)(F)F)cc1CNC1(c2cnccc2-c2ccccc2OC2CC2)CC1` [Compound I-37, 1-[4-(2-cyclopropoxyphenyl)pyridin-3-yl]-N-{[2-methyl-5-(trifluoromethyl)phenyl]methyl}cyclopropan-1-amine], the EC50 was less than 100 nM.
Regarding `COc1cc(C)c(CNC2(c3cnccc3-c3ccccc3OC3CC3)CC2)cc1C(C)C` [Compound I-38, 1-[4-(2-cyclopropoxyphenyl)pyridin-3-yl]-N-{[4-methoxy-2-methyl-5-(propan-2-yl)phenyl]methyl}cyclopropan-1-amine], the EC50 is 126 to 1000 nM.
